From PubChem BioAssay (NCI)
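Results reflect a 48-hour exposure of cells in 96-well plates to compound at five concentrations. At the GI50, growth is halved. The concentration for full growth arrest is given as TGI.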

Legend:
Assay in all cases: NCI tumour cell line growth inhibition, 48 h
[1] = system: A498 renal
[2] = system: COLO 205 colon
[3] = system: SF-539 CNS
[4] = system: SNB-19 CNS
[5] = system: HCT-15 colon
[6] = system: MOLT-4 leukemia
[7] = system: SF-295 CNS
[8] = system: CCRF-CEM leukemia
[9] = system: NCI-H226 lung
[10] = system: MCF7 breast
[11] = system: HL-60(TB) leukemia
[12] = system: UACC-62 melanoma
[13] = system: SN12C renal
[14] = system: K-562 leukemia
[15] = system: OVCAR-3 ovarian
[16] = system: SK-OV-3 ovarian
[17] = system: PC-3 prostate
[18] = system: SK-MEL-2 melanoma
[19] = system: MALME-3M melanoma
[20] = system: RPMI-8226 leukemia
[21] = system: OVCAR-4 ovarian
[22] = system: TK-10 renal
[23] = system: BT-549 breast
[24] = system: U251 CNS
[25] = system: UO-31 renal
[26] = system: LOX IMVI melanoma
[27] = system: CAKI-1 renal
[28] = system: SW-620 colon
[29] = system: OVCAR-8 ovarian
[30] = system: ACHN renal
[31] = system: IGROV1 ovarian
[32] = system: KM12 colon
[33] = system: OVCAR-5 ovarian
[34] = system: A549 NSCLC
[35] = system: NCI-H460 lung
[36] = system: HCT-116 colon
[37] = system: 786-0 renal
[38] = system: HCC-2998 colon
[39] = system: DU-145 prostate
[40] = system: SF-268 CNS
[41] = system: M14 melanoma
[42] = system: MDA-MB-468 breast
[43] = system: NCI-H522 lung
[44] = system: SK-MEL-28 melanoma
[45] = system: NCI-H23 lung
[46] = system: SR leukemia
[47] = system: HT29 colon
[48] = system: T-47D breast
[49] = system: MDA-MB-435
[50] = system: NCI/ADR-RES ovarian
[51] = system: HOP-62 NSCLC
[52] = system: SK-MEL-5 melanoma
[53] = system: HS 578T breast
[54] = system: EKVX NSCLC
[55] = system: UACC-257 melanoma
[56] = system: SNB-75 CNS
[57] = system: MDA-MB-231 breast
[58] = system: HOP-92 NSCLC

Work on Clc1ccc2c(NCCNC34CC5CC(CC(C5)C3)C4)ccnc2c1 yielded a GI50 [1] of 3.09 µM, a TGI [1] of 6.1 µM and a GI50 [2] of 0.416 µM. For the same molecule, the TGI [2] was 1 µM, the GI50 [3] was 0.533 µM and the TGI [3] was 1.21 µM. It also gave a GI50 [4] of 3.8 µM, a TGI [4] of 7.19 µM and a GI50 [5] of 0.763 µM. It also gave a TGI [5] of 3.28 µM, a GI50 [6] of 3.63 µM and a TGI [6] of 10.2 µM. For the same molecule, the GI50 [7] was 3.47 µM, the TGI [7] was 6.67 µM and the GI50 [8] was 5 µM. The TGI [8] was 12.9 µM, the GI50 [9] was 3.04 µM and the TGI [9] was 6.5 µM. For the same molecule, the GI50 [10] was 0.868 µM, the TGI [10] was 3.47 µM and the GI50 [11] was 3.69 µM. The TGI [11] was 8.73 µM, the GI50 [12] was 3.03 µM and the TGI [12] was 6.05 µM. The GI50 [13] was 3.24 µM, the TGI [13] was 6.34 µM and the GI50 [14] was 0.756 µM. The TGI [14] was 4.57 µM, the GI50 [15] was 3.11 µM and the TGI [15] was 6.1 µM. For the same molecule, the GI50 [16] was 4.32 µM, the TGI [16] was 8.21 µM and the GI50 [17] was 3.1 µM. For the same molecule, the TGI [17] was 7.77 µM, the GI50 [18] was 3.37 µM and the TGI [18] was 6.62 µM. It also gave a GI50 [19] of 1.25 µM, a TGI [19] of 4.24 µM and a GI50 [20] of 1.22 µM. For the same molecule, the TGI [20] was 9.55 µM, the GI50 [21] was 2.95 µM and the TGI [21] was 7.8 µM. For the same molecule, the GI50 [22] was 3.71 µM, the TGI [22] was 7.28 µM and the GI50 [23] was 2.67 µM. The TGI [23] was 6.03 µM, the GI50 [24] was 1.32 µM and the TGI [24] was 4.78 µM. It also gave a GI50 [25] of 2.57 µM, a TGI [25] of 5.38 µM and a GI50 [26] of 1.06 µM. It also gave a TGI [26] of 4.07 µM, a GI50 [27] of 2.82 µM and a TGI [27] of 5.76 µM. The GI50 [28] was 2.83 µM, the TGI [28] was 6 µM and the GI50 [29] was 2.9 µM. The TGI [29] was 6.16 µM, the GI50 [30] was 2.88 µM and the TGI [30] was 5.83 µM. It also gave a GI50 [31] of 3.37 µM, a TGI [31] of 6.65 µM and a GI50 [32] of 2.87 µM. The TGI [32] was 5.82 µM, the GI50 [33] was 2.9 µM and the TGI [33] was 6.05 µM. It also gave a GI50 [34] of 3.19 µM, a TGI [34] of 7.18 µM and a GI50 [35] of 3.31 µM. For the same molecule, the TGI [35] was 6.61 µM, the GI50 [36] was 1.43 µM and the TGI [36] was 4.91 µM. For the same molecule, the GI50 [37] was 2.41 µM, the TGI [37] was 5.57 µM and the GI50 [38] was 0.889 µM. It also gave a TGI [38] of 3.32 µM, a GI50 [39] of 3.57 µM and a TGI [39] of 6.72 µM. It also gave a GI50 [40] of 3.03 µM, a TGI [40] of 6.14 µM and a GI50 [41] of 0.43 µM. It also gave a TGI [41] of 0.837 µM, a GI50 [42] of 0.435 µM and a TGI [42] of 1.21 µM. For the same molecule, the GI50 [43] was 2.9 µM, the TGI [43] was 6.34 µM and the GI50 [44] was 3.15 µM. For the same molecule, the TGI [44] was 6.2 µM, the GI50 [45] was 3.41 µM and the TGI [45] was 6.82 µM. For the same molecule, the GI50 [46] was 0.622 µM, the TGI [46] was 2.31 µM and the GI50 [47] was 0.675 µM. For the same molecule, the TGI [47] was 2.71 µM, the GI50 [48] was 3.33 µM and the TGI [48] was 7.75 µM. The GI50 [49] was 0.566 µM, the TGI [49] was 1.6 µM and the GI50 [50] was 3.21 µM. For the same molecule, the TGI [50] was 6.42 µM, the GI50 [51] was 3.7 µM and the TGI [51] was 7.41 µM. For the same molecule, the GI50 [52] was 3.12 µM, the TGI [52] was 6.12 µM and the GI50 [53] was 2.64 µM. The TGI [53] was 6.51 µM, the GI50 [54] was 3.53 µM and the TGI [54] was 7.16 µM. The GI50 [55] was 3.24 µM, the TGI [55] was 6.62 µM and the GI50 [56] was 3.15 µM. For the same molecule, the TGI [56] was 6.97 µM, the GI50 [57] was 2.38 µM and the TGI [57] was 5.19 µM. It also gave a GI50 [58] of 0.484 µM and a TGI [58] of 3.17 µM.
